# Experimental data from patent publication US9718790B2, “Triazine derivative and pharmaceutical composition having an analgesic activity comprising the same” (SHIONOGI & CO., LTD., priority 2010, dated 2017).
# Molecular target: human P2X3 receptor (Homo sapiens (Human), UniProt P56373)
# Assay: Evaluation of human P2X3 receptor inhibitory activity (Fluo-3 calcium fluorescence, FDSS 3000, ATP stimulation);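 also: stimulus was 50 nM ATP with fluorescence followed for 3 min, and the response per well was peak post-ATP fluorescence divided by the reading at measurement start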
# Type: cell-based
# Details: C6BU-1 cells stably expressing human P2X3 receptor
# Sequence of human P2X3 receptor (P56373 whole entry): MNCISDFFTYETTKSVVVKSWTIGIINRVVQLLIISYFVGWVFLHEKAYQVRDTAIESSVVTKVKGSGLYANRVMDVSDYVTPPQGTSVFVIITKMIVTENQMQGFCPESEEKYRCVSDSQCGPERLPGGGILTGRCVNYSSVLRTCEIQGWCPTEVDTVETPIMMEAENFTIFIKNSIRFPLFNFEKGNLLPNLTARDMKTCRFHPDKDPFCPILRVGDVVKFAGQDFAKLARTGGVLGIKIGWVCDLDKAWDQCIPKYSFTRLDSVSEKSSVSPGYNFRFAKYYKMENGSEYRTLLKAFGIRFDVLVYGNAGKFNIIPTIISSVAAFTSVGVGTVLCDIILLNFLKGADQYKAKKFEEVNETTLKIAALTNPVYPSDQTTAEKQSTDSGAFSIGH
row,Structure (SMILES),IC50
1,CCn1c(=O)[nH]/c(=N\c2ccc(Oc3ccccc3C(=O)O)cc2)n(Cc2ccc(Cl)cc2)c1=O [Compound I-1992],240 nM
2,CCCOc1ccc(/N=c2\[nH]c(=O)n(C[C@H](C)C(=O)OC)c(=O)n2Cc2ccc(Cl)cc2)cc1 [Compound I-0619],14 nM
3,"CC(C)Oc1ccc(/N=c2\[nH]c(=O)n(CCS(N)(=O)=O)c(=O)n2Cc2ccc(Cl)cc2)cc1F [Compound I-0693, 1-(4-chlorobenzyl)-6-(3-fluoro-4-isopropoxyphenylimino)-3-(2-sulfamoylethyl)-1,3,5-triazinane-2,4-dion]",13 nM
4,CC(C)Oc1ccc(/N=c2\[nH]c(=O)n(Cc3ncn[nH]3)c(=O)n2Cc2ccc(Cl)cc2)cc1F [Compound I-0679],32 nM
5,Cc1ccc(Cn2c(=O)n(CC(C)(C)C(=O)O)c(=O)[nH]/c2=N\c2cccc(C(F)(F)F)c2)cc1 [Compound I-1271],32 nM
6,Cc1[nH]c2ccc(/N=c3\[nH]c(=O)n(CCC(N)=O)c(=O)n3Cc3ccc(Cl)cc3)cc2c1C [Compound I-1966],11 nM
7,COC(=O)[C@@H](C)Cn1c(=O)[nH]/c(=N\c2ccc(N3CCCCCC3)cc2)n(Cc2ccc(C)cc2)c1=O [Compound I-1234],230 nM
8,COC(=O)[C@@H](C)Cn1c(=O)[nH]/c(=N\c2ccc3[nH]c(C)cc3c2)n(Cc2ccc(Cl)cc2)c1=O [Compound I-0692],29 nM
9,Cc1ccc(Cn2c(=O)n(CC(C)(C)C(=O)O)c(=O)[nH]/c2=N\c2ccc(OCC3CC3)cc2)cc1 [Compound I-1268],52 nM
10,CC(C)Oc1cccc(Cn2c(=O)n(Cc3ccc(Cl)cc3)c(=O)n(C(C)C)c2=O)c1 [Compound I-1292],445 nM
11,COC(=O)NCCn1c(=O)[nH]/c(=N\c2ccc(OC(C)C)c(F)c2)n(Cc2ccc(Cl)cc2)c1=O [Compound I-0607],12 nM
12,CCOc1cc(F)c(/N=c2\[nH]c(=O)n(CCC(=O)O)c(=O)n2Cc2ccc(C)cc2)c(F)c1 [Compound I-2053],952 nM
13,Cc1cc(/N=c2\[nH]c(=O)n(Cc3cccn(CCO)c3=O)c(=O)n2Cc2ccc(Cl)cc2)ccc1OC(C)C [Compound I-0713],16 nM
14,Cc1ccc(Cn2c(=O)n(CCC(=O)O)c(=O)[nH]/c2=N\c2ccc(OC3CCC3)cc2)cc1 [Compound I-1285],51 nM
15,Cc1cc(/N=c2\[nH]c(=O)n(-c3ccc(C(=O)O)cc3)c(=O)n2Cc2ccc(Cl)cc2)ccc1OC(C)C [Compound I-0762],82 nM
16,CC(C)Oc1ccc(/N=c2\[nH]c(=O)n(CC(=O)OC3CCOCC3)c(=O)n2Cc2ccc(Cl)cc2)cc1Cl [Compound I-0673],8 nM
17,COC(=O)[C@@H](C)Cn1c(=O)[nH]/c(=N\c2cccc(OC)c2)n(Cc2ccc(C)cc2)c1=O [Compound I-1201],788 nM
18,C[C@H](C(=O)O)[C@@H](C)n1c(=O)[nH]/c(=N\c2cccc(C(F)(F)F)c2)n(Cc2ccc(Cl)cc2)c1=O [Compound I-1345],69 nM
19,Cc1cc(/N=c2\[nH]c(=O)n(C[C@H](C)C(=O)O)c(=O)n2Cc2ccc(F)cc2)ccc1OC(C)C [Compound I-0629],127 nM
20,COC(=O)[C@@H](C)Cn1c(=O)[nH]/c(=N\c2ccc(OC(C)C)c(C)c2)n(Cc2ccc(C)cc2)c1=O [Compound I-0670],8 nM
21,CCOC(=O)CCn1c(=O)[nH]/c(=N\c2ccc(CC(C)C)c(OC)c2)n(Cc2ccc(C)cc2)c1=O [Compound I-1361],15 nM
22,CCn1c(=O)[nH]/c(=N\c2ccc(Oc3ccc(C(=O)O)nc3)cc2)n(Cc2ccc(Cl)cc2)c1=O [Compound I-2115],18 nM
23,Cc1ccc(Cn2c(=O)n(CCC(=O)O)c(=O)[nH]/c2=N\c2ccc(Oc3cccnc3)cc2)cc1 [Compound I-1227],30 nM
24,CCc1nc2ccc(/N=c3\[nH]c(=O)n(CCCCC(=O)O)c(=O)n3Cc3ccc(C)cc3)cc2s1 [Compound I-2159],47 nM
25,COC(=O)[C@@H](C)Cn1c(=O)[nH]/c(=N\c2ccc(C=C(C)C)nc2)n(Cc2ccc(C)cc2)c1=O [Compound I-1301],514 nM
26,Cc1cc2cc(/N=c3\[nH]c(=O)n(CC(CO)CO)c(=O)n3Cc3ccc(Cl)cc3)ccc2o1 [Compound I-2070],19 nM
27,COC(=O)C(C)(C)Cn1c(=O)[nH]/c(=N\c2ccc(OCC3CC3)cc2)n(Cc2ccc(Cl)cc2)c1=O [Compound I-1236],13 nM
28,Cc1ccc(/N=c2\[nH]c(=O)n(C[C@H](C)C(=O)O)c(=O)n2Cc2ccc(Cl)cc2)cc1Cl [Compound I-0696],129 nM

# Same assay, conditions: C6BU-1 cells stably expressing human P2X3 receptor, Fluo-3 fluorescence, FDSS 3000
row,Structure (SMILES),IC50
1,Cc1nc2ccc(/N=c3\[nH]c(=O)n(CCCO)c(=O)n3Cc3ccc(Cl)cc3)cc2s1 [Compound I-1619],6 nM
2,CNC(=O)Cn1c(=O)[nH]/c(=N\c2ccc3nc(C)sc3c2)n(Cc2ccc(Cl)cc2)c1=O [Compound I-1660],5 nM
3,CCOC(=O)CCn1c(=O)[nH]/c(=N\c2ccc(O[C@H](C)CC)cc2)n(Cc2ccc(C)cc2)c1=O [Compound I-1018],8 nM
4,COC(=O)[C@@H](C)Cn1c(=O)[nH]/c(=N\c2ccc(Cl)c(C(F)(F)F)c2)n(Cc2ccc(C)cc2)c1=O [Compound I-1000],116 nM
5,C[C@@H](C(=O)O)[C@H](C)n1c(=O)[nH]/c(=N\c2ccc3cc(Br)ccc3c2)n(Cc2ccc(Cl)cc2)c1=O [Compound I-1832],32 nM
6,Cc1ccc(Cn2c(=O)n(C[C@H](C)C(=O)O)c(=O)[nH]/c2=N\c2ccc(CN(C)C)c(Cl)c2)cc1 [Compound I-1177],273 nM
7,CCc1oc2ccc(/N=c3\[nH]c(=O)n(CCCO)c(=O)n3Cc3ccc(Cl)cc3)cc2c1C [Compound I-1625],6 nM
8,CC(C)Cc1ccc(/N=c2\[nH]c(=O)n(CC(C)(CO)CO)c(=O)n2Cc2ccc(Cl)cc2)cc1Cl [Compound I-1637],12 nM
9,CCc1oc2ccc(/N=c3\[nH]c(=O)n(C[C@H]4COC(C)(C)O4)c(=O)n3Cc3ccc(Cl)cc3)cc2c1C [Compound I-1604],8 nM
10,CCn1c(=O)[nH]/c(=N\c2ccc(Oc3cccc(CC(=O)O)c3)cc2)n(Cc2ccc(Cl)cc2)c1=O [Compound I-1894],23 nM
11,CCOC(=O)CCn1c(=O)[nH]/c(=N\c2ccc3nc(C(C)C)sc3c2)n(Cc2ccc(C)cc2)c1=O [Compound I-1562],6 nM
12,O=C(O)C1(Cn2c(=O)[nH]/c(=N\c3ccc(OCC4CC4)cc3)n(Cc3ccc(Cl)cc3)c2=O)CC1 [Compound I-0934],57 nM
13,COC(=O)[C@@H](C)Cn1c(=O)[nH]/c(=N\c2ccc(O[C@@H](C)C(F)(F)F)cc2)n(Cc2ccc(Cl)cc2)c1=O [Compound I-0943],61 nM
14,CCOC(=O)CCn1c(=O)[nH]/c(=N\c2ccc(OC(C)C)c(F)c2)n(CC2C[C@H]3CC[C@@H]2C3)c1=O (some centres unmarked) [Compound I-1860],150 nM
15,Cc1ccc(Cn2c(=O)n(C[C@H](C)C(=O)O)c(=O)[nH]/c2=N\c2cccc(C3=CCCCC3)c2)cc1 [Compound I-1112],872 nM
16,COC(=O)[C@@H](C)Cn1c(=O)nc(Cc2ccccc2C)n(Cc2ccc(Cl)cc2)c1=O [Compound I-1865],357 nM
17,COC(=O)CCn1c(=O)[nH]/c(=N\C2CCCCC2)n(Cc2ccc(C)cc2)c1=O [Compound I-1668],309 nM
18,COC(=O)C(C)(C)Cn1c(=O)[nH]/c(=N\c2ccc3nc(C)sc3c2)n(Cc2ccc(C)cc2)c1=O [Compound I-1571],4 nM
19,COC(=O)Cn1c(=O)[nH]/c(=N\c2ccc(Oc3ccnc(O)c3)cc2)n(Cc2ccc(Cl)cc2)c1=O [Compound I-1903],4 nM
20,COC(=O)[C@@H](C)Cn1c(=O)[nH]/c(=N\c2ccc(OC(C)C)c(O)c2)n(Cc2ccc(C)cc2)c1=O [Compound I-1128],21 nM
21,C[C@@H](C(=O)O)[C@H](C)n1c(=O)[nH]/c(=N\c2ccc3ncccc3c2)n(Cc2ccc(Cl)cc2)c1=O [Compound I-1834],325 nM

# Same assay, conditions: human P2X3 receptor, Test Example 1
row,Structure (SMILES),IC50
1,C=COc1ccc(N(C)c2nc(=O)n(C[C@H](C)C(=O)OC)c(=O)n2Cc2ccc(C)cc2)cc1Cl [Compound I-1550],833 nM
2,O=c1[nH]/c(=N\c2ccc(Oc3ccon3)c(F)c2)n(Cc2ccc(Cl)cc2)c(=O)n1CC(CO)CO [Compound I-2439],4 nM
3,CCn1c(=O)[nH]/c(=N\c2ccc(Oc3cccc(/C=C/C(=O)OC)c3)cc2)n(Cc2ccc(Cl)cc2)c1=O [Compound I-2224],33 nM
4,Cc1ccc(Cn2c(=O)n(C[C@H](C)C(=O)O)c(=O)[nH]/c2=N\c2ccc(Oc3ccccc3)nc2)cc1 [Compound I-1517],240 nM
5,CC(C)Oc1ccc(-n2c(NCc3ccc(Cl)cc3)nc(=S)n(C(C)C)c2=O)cc1 [Compound I-2255],543 nM
6,CCn1c(=O)[nH]/c(=N\c2ccc(Oc3ccnc(NCC(N)=O)c3)cc2)n(Cc2ccc(Cl)cc2)c1=O [Compound I-2554],7 nM
7,COC(=O)c1cncc(Oc2ccc(/N=c3\[nH]c(=O)n(C4CC4)c(=O)n3Cc3ccc(Cl)cc3)cc2)c1 [Compound I-2308],3 nM
8,CCOC(=O)Cn1c(=O)[nH]/c(=N\c2ccc(Oc3nccs3)cc2)n(Cc2ccc(Cl)cc2)c1=O [Compound I-2618],7 nM
9,O=C(O)Cn1c(=O)[nH]/c(=N\c2ccc(Oc3ccon3)c(F)c2)n(Cc2ccc(Cl)cc2)c1=O [Compound I-2580],204 nM
10,Cc1nnc(Oc2ccc(/N=c3\[nH]c(=O)n(CC(CO)CO)c(=O)n3Cc3ccc(Cl)cc3)cc2)s1 [Compound I-2517],167 nM
11,Cc1nsc(Oc2ccc(/N=c3\[nH]c(=O)n(CC(=O)NCCO)c(=O)n3Cc3ccc(Cl)cc3)cc2)n1 [Compound I-2678],3 nM
12,Cc1nsc(Oc2ccc(/N=c3\[nH]c(=O)n(CC(C)(CO)CO)c(=O)n3Cc3ccc(F)cc3)cc2)n1 [Compound I-2571],7 nM
13,CCn1c(=O)[nH]/c(=N\c2ccc(Oc3ccc(C(N)=O)nc3)cc2)n(Cc2ccc(Cl)cn2)c1=O [Compound I-2279],33 nM
14,CCn1c(=O)[nH]/c(=N\c2ccc(Oc3cccc(CCC(=O)O)c3)cc2)n(Cc2ccc(Cl)cc2)c1=O [Compound I-2232],13 nM
15,CNC(=O)[C@@H](C)n1c(=O)[nH]/c(=N\c2ccc(Oc3ccon3)cc2)n(Cc2ccc(Cl)cc2)c1=O [Compound I-2534],105 nM
16,CCn1c(=O)[nH]/c(=N\c2ccc(Oc3cc(C#N)ccn3)cc2)n(Cc2ccc(C)cc2)c1=O [Compound I-2300],3 nM
